Source: the NIST ThermoML archive (doi:10.1021/je1006482)
± gives the expanded uncertainty stated by the source.

Legend:
[1] = excess molar enthalpy (molar enthalpy of mixing); xn = mol fraction of the nth substance listed; conditions: 101.3 kPa, Liquid, Flow calorimetry
[2] = 101.33 kPa, Liquid

COC(=O)CC(C)=O [methyl 3-oxobutanoate] + CCO
excess molar enthalpy [kcal/mol], [1]
Conditions	288.2 K	298.2 K	313.2 K	328.2 K
x1 = 0.1003	0.175 ± 0.00382	0.188 ± 0.0043	0.21 ± 0.00478	0.228 ± 0.00502
x1 = 0.2002	0.278 ± 0.00598	0.303 ± 0.00669	0.343 ± 0.00741	0.37 ± 0.00789
x1 = 0.2995	0.34 ± 0.00741	0.377 ± 0.00813	0.424 ± 0.00908	0.451 ± 0.00956
x1 = 0.3494	0.361 ± 0.00789	0.399 ± 0.0086	0.453 ± 0.0098	0.479 ± 0.0103
x1 = 0.3995	0.375 ± 0.00813	0.416 ± 0.00884	0.47 ± 0.01	0.501 ± 0.0108
x1 = 0.4495	0.384 ± 0.00837	0.426 ± 0.00908	0.48 ± 0.0103	0.509 ± 0.0108
x1 = 0.5008	0.387 ± 0.00837	0.428 ± 0.00908	0.481 ± 0.0103	0.51 ± 0.0108
x1 = 0.5497	0.384 ± 0.00837	0.424 ± 0.00908	0.476 ± 0.0103	0.502 ± 0.0108
x1 = 0.5995	0.375 ± 0.00813	0.414 ± 0.00884	0.461 ± 0.0098	0.483 ± 0.0103
x1 = 0.65	0.36 ± 0.00765	0.395 ± 0.00837	0.44 ± 0.00932	0.457 ± 0.0098
x1 = 0.7011	0.337 ± 0.00717	0.366 ± 0.00789	0.405 ± 0.0086	0.419 ± 0.00908
x1 = 0.7996	0.269 ± 0.00598	0.288 ± 0.00621	0.313 ± 0.00669	0.319 ± 0.00693
x1 = 0.9006	0.155 ± 0.00359	0.164 ± 0.00382	0.173 ± 0.00406	0.174 ± 0.00406

COC(=O)CC(C)=O [methyl 3-oxobutanoate]
[2]
Conditions	mass density [kg/m3]
288.2 K	1081.93 ± 0.4
298.2 K	1071.18 ± 0.38
313.2 K	1055.01 ± 0.34
328.2 K	1038.78 ± 0.31
338.2 K	1027.89 ± 0.29
348.2 K	1016.95 ± 0.26

COC(=O)CC(C)=O [methyl 3-oxobutanoate] + CCCO
excess molar enthalpy [kcal/mol], [1]
Conditions	288.2 K	298.2 K	313.2 K	328.2 K
x1 = 0.0994	0.197 ± 0.0043	0.219 ± 0.00502	0.244 ± 0.0055	0.262 ± 0.00598
x1 = 0.1995	0.311 ± 0.00693	0.351 ± 0.00765	0.4 ± 0.0086	0.433 ± 0.00932
x1 = 0.2993	0.38 ± 0.00813	0.43 ± 0.00932	0.495 ± 0.0105	0.538 ± 0.0115
x1 = 0.3492	0.403 ± 0.0086	0.458 ± 0.0098	0.527 ± 0.0112	0.568 ± 0.0122
x1 = 0.3995	0.42 ± 0.00908	0.477 ± 0.0103	0.549 ± 0.0117	0.59 ± 0.0127
x1 = 0.45	0.432 ± 0.00932	0.486 ± 0.0105	0.56 ± 0.012	0.599 ± 0.0127
x1 = 0.5008	0.435 ± 0.00932	0.491 ± 0.0105	0.561 ± 0.012	0.601 ± 0.0129
x1 = 0.5498	0.434 ± 0.00932	0.487 ± 0.0105	0.553 ± 0.0117	0.587 ± 0.0124
x1 = 0.6007	0.425 ± 0.00908	0.476 ± 0.0103	0.534 ± 0.0115	0.564 ± 0.012
x1 = 0.6495	0.41 ± 0.00884	0.457 ± 0.0098	0.507 ± 0.0108	0.533 ± 0.0115
x1 = 0.7	0.387 ± 0.00837	0.427 ± 0.00908	0.471 ± 0.01	0.488 ± 0.0105
x1 = 0.8001	0.314 ± 0.00693	0.337 ± 0.00741	0.361 ± 0.00789	0.37 ± 0.00813
x1 = 0.9003	0.186 ± 0.0043	0.192 ± 0.0043	0.203 ± 0.00454	0.206 ± 0.00478

COC(=O)CC(C)=O [methyl 3-oxobutanoate] + CO
excess molar enthalpy [kcal/mol], [1]
Conditions	288.2 K	298.2 K	313.2 K	328.2 K
x1 = 0.1004	0.127 ± 0.00287	0.136 ± 0.00311	0.148 ± 0.00335	0.159 ± 0.00359
x1 = 0.2001	0.209 ± 0.00454	0.222 ± 0.00478	0.246 ± 0.00526	0.261 ± 0.00574
x1 = 0.3	0.262 ± 0.00574	0.279 ± 0.00598	0.306 ± 0.00669	0.329 ± 0.00717
x1 = 0.3506	0.28 ± 0.00598	0.298 ± 0.00645	0.328 ± 0.00693	0.35 ± 0.00741
x1 = 0.4003	0.293 ± 0.00621	0.309 ± 0.00669	0.34 ± 0.00717	0.364 ± 0.00789
x1 = 0.4497	0.298 ± 0.00645	0.315 ± 0.00669	0.347 ± 0.00741	0.37 ± 0.00789
x1 = 0.5001	0.301 ± 0.00645	0.319 ± 0.00693	0.348 ± 0.00741	0.37 ± 0.00789
x1 = 0.551	0.298 ± 0.00645	0.314 ± 0.00669	0.345 ± 0.00741	0.366 ± 0.00789
x1 = 0.5993	0.289 ± 0.00621	0.307 ± 0.00669	0.335 ± 0.00717	0.353 ± 0.00765
x1 = 0.6492	0.277 ± 0.00598	0.29 ± 0.00621	0.316 ± 0.00669	0.332 ± 0.00717
x1 = 0.7004	0.257 ± 0.0055	0.272 ± 0.00598	0.292 ± 0.00621	0.306 ± 0.00669
x1 = 0.7993	0.202 ± 0.00454	0.21 ± 0.00454	0.222 ± 0.00478	0.233 ± 0.00502
x1 = 0.8988	0.118 ± 0.00263	0.117 ± 0.00263	0.125 ± 0.00287	0.129 ± 0.00287

COC(=O)CC(C)=O [methyl 3-oxobutanoate] + CC(C)O
excess molar enthalpy [kcal/mol], [1]
Conditions	288.2 K	298.2 K	313.2 K	328.2 K
x1 = 0.1002	0.228 ± 0.00502	0.251 ± 0.0055	0.272 ± 0.00598	0.285 ± 0.00645
x1 = 0.2005	0.349 ± 0.00765	0.394 ± 0.0086	0.443 ± 0.00956	0.469 ± 0.01
x1 = 0.2998	0.422 ± 0.00908	0.48 ± 0.0103	0.542 ± 0.0117	0.576 ± 0.0124
x1 = 0.35	0.448 ± 0.00956	0.504 ± 0.0108	0.569 ± 0.0122	0.605 ± 0.0129
x1 = 0.4004	0.461 ± 0.01	0.525 ± 0.0112	0.59 ± 0.0127	0.633 ± 0.0136
x1 = 0.4493	0.473 ± 0.0103	0.536 ± 0.0115	0.601 ± 0.0129	0.639 ± 0.0136
x1 = 0.4998	0.476 ± 0.0103	0.536 ± 0.0115	0.598 ± 0.0127	0.634 ± 0.0136
x1 = 0.5504	0.473 ± 0.0103	0.531 ± 0.0115	0.589 ± 0.0127	0.62 ± 0.0131
x1 = 0.6008	0.462 ± 0.01	0.518 ± 0.011	0.565 ± 0.0122	0.593 ± 0.0127
x1 = 0.6492	0.444 ± 0.00956	0.494 ± 0.0105	0.536 ± 0.0115	0.558 ± 0.012
x1 = 0.6991	0.418 ± 0.00908	0.461 ± 0.0098	0.493 ± 0.0105	0.51 ± 0.011
x1 = 0.7997	0.336 ± 0.00741	0.361 ± 0.00789	0.374 ± 0.00813	0.382 ± 0.00837
x1 = 0.9002	0.194 ± 0.0043	0.206 ± 0.00478	0.205 ± 0.00478	0.211 ± 0.00478
